# Measurements: patent US9955689B2, “Method for promoting plant growth” (SUMITOMO CHEMICAL COMPANY, LIMITED, priority 2012, dated 2018)
# Test system: Nicotiana benthamiana
# Assay: Test Example 5: growth promotion under low-temperature stress by hydroponics of Nicotiana benthamiana (1 ppm)
# Assay type: in vivo
# Details: compound at 1 ppm, 7 days at 1.5±1.0° C. low-temperature stress, then 3 days at 22° C., 5 or greater = growth promotion effect, read-out: value of a relative leaf area (Equation (1), area of green leaf)
# Procedure: Test Example 5. Test for Evaluating Growth Promotion Under Low-Temperature Stress by Hydroponics of Nicotiana benthamiana
# (§1) (Cultivation and Compound Treatment)
# A DMSO solution, which contained one of the compounds 9, 10, 15, 16, 27 to 29, 31 to 37, 40, 44, 47, 48, 52, 55, 56, 58, 61, 63, 81, 87, 89, 92, 95, 98, 100, 102, 105, 108, 109, 111, 113, and 115 of the present invention at a concentration of 1,000 ppm, was prepared. The DMSO solution of the compound of the present invention was added at a volume ratio of 1/1,000 to the Murashige-Scoog medium of a ½-fold concentration (a medium containing 2.3 g of mixed salts (manufactured by Wako Pure Chemical Industries, Ltd.), 200 mg of Myo-inositol (manufactured by Sigme-Aldrich Co. LLC.), 2 mg of niconitic acid (manufactured by Wako Pure Chemical. Industries, Ltd.), 2 mg of pyridoxine hydrochloride (manufactured by Wako Pure Chemical Industries, Ltd.), 20 mg of thiamine hydrochloride (manufactured by Wako Pure Chemical Industries, Ltd.), 20 g of sucrose (manufactured by Wako Pure Chemical Industries, Ltd.), and 1 g of MES (manufactured by DOJINDO LABORATORIES) respectively per 1 L of water and having pH adjusted to 5.8), thereby preparing a medium containing the compound of the present invention at a concentration of 1 ppm.
# (§2) Seeds of Nicotiana benthamiana were seeded in the 5 μL of the medium and cultured overnight at 22° C. Thereafter, 45 μL of the medium containing the compound of the present invention at a concentration of 1 ppm was added thereto, and the seeds are cultured for 7 days at 22° C. under the conditions of an illuminance of 4,000 lux, and a day length of 16 hours, and the seedlings raised from the Nicotiana benthamiana were treated with the compound. Moreover, instead of the above medium a test plot, which was obtained by performing the same treatment by using a medium prepared by adding DMSO to the Murashige⋅Scoog medium of ½-fold concentration at a volume ratio of 1/1,000, was used as a control plot not treated with the compound.
# (§3) (Low-Temperature Stress Treatment)
# (§4) The seedlings of the Nicotiana benthamiana treated with the compound were subjected to low-temperature treatment by being cultured for 7 days at 1.5±1.0° C., under the conditions of an illuminance of 2,000 lux, and a day length of 16 hours.
# The seedlings of the Nicotiana benthamiana having undergone the low-temperature stress treatment were cultured for 3 days at 22° C. under the conditions of an illuminance of 4,000 lux, and a day length of 16 hours. Thereafter, the area of green leaf was quantified by Scanalyzer HTS (manufactured by LemnaTec GmbH). Moreover, the value of the control plot not treated with the compound that had not yet been subjected to the low-temperature stress treatment was measured in the same manner. A value of a relative leaf area was calculated based on the following equation (1), and if the relative value of leaf area was 5 or greater, the compound was evaluated to have a growth promotion effect. As a result of the evaluation, it was confirmed that when the plant was treated with one of the compounds 9, 10, 15, 16, 27 to 29, 31 to 37, 40, 44, 47, 48, 52, 55, 56, 58, 61, 63, 81, 87, 89, 92, 95, 98, 100, 102, 105, 108, 109, 111, 113, and 115 of the present invention at 1 ppm, the value of a relative leaf area was 5 or greater, compared to the area of green leaf of the control plot not treated with compound. Accordingly, it was confirmed that the treatment using the compound of the present invention improve a growth promotion effect. Relative leaf area=100*(a green area of a plot treated with the compound of the present invention minus(−) a green area of a plot not treated with the compound of the present invention)/(a green area of a control plot not treated with the compound of the present invention that had not yet been subjected to low-temperature stress treatment minus(−) a green area of a control plot not treated with the compound of the present invention) Equation (1): […]
row,Compound,relative leaf area at 1 ppm [%]
1,"O=C(O)c1sc2ccccc2c1C(=O)O [Present compound 55, benzo[b]thiophene-2,3-dicarboxylic acid]",≥ 5

# Test system: Nicotiana benthamiana
# Assay: Test Example 6: growth promotion under low-temperature stress by hydroponics of Nicotiana benthamiana (0.1 ppm)
# Assay type: in vivo
# Details: compound at 0.1 ppm, 7 days at 1.5±1.0° C. low-temperature stress, then 3 days at 22° C., 5 or greater = growth promotion effect, read-out: value of a relative leaf area (Equation (1), area of green leaf)
# Procedure: Test Example 6. Test for Evaluating Growth Promotion Under Low-Temperature Stress by Hydroponics of Nicotiana benthamiana
# as §1
# A DMSO solution, which contained one of the compounds 2, 3, 7, 11 to 13, 20, 23, 24, 30, 38, 39, 41 to 43, 46, 50, 64, 68, 80, 82, 88, 93, 94, 96, 104, 107, and 112 of the present invention at a concentration of […], was prepared. The DMSO solution of the compound of the present invention was added at a volume ratio of 1/1,000 to the Murashige⋅Scoog medium of a ½-fold concentration (a medium containing 2.3 g of mixed salts (manufactured by Wako Pure Chemical Industries, Ltd.), 200 mg of Myo-inositol (manufactured by Sigme-Aldrich Co. LLC.), 2 mg of niconitic acid (manufactured by Wako Pure Chemical Industries, Ltd.), 2 mg of pyridoxine hydrochloride (manufactured by Wako Pure Chemical Industries, Ltd.), 20 mg of thiamine hydrochloride (manufactured by Wako Pure Chemical Industries, Ltd.), 20 g of sucrose (manufactured by Wako Pure Chemical Industries, Ltd.), and 1 g of […] (manufactured by DOJINDO LABORATORIES) respectively per 1 L of water and having pH adjusted to 5.8), thereby preparing a medium containing the compound of the present invention at a concentration of 0.1 ppm.
# as §2, with “concentration of 0.1 ppm was” for “concentration of 1 ppm was”, “to the Murashige′Scoog medium of” for “to the Murashige⋅Scoog medium of”
# as §3, §4
# The seedlings of the Nicotiana benthamiana having undergone the low-temperature stress treatment were cultured for 3 days at 22° C., under the conditions of an illuminance of 4,000 lux, and a day length of 16 hours. Thereafter, the area of green leaf was quantified by Scanalyzer HTS (manufactured by LemnaTec GmbH). Moreover, the value of the control plot not treated with the compound that had not yet been subjected to the low-temperature stress treatment was measured in the same manner. A value of a relative leaf area was calculated based on the following equation (1), and if the relative value of leaf area was 5 or greater, the compound was evaluated to have a growth promotion effect. As a result of the evaluation, it was confirmed that when the plant was treated with one of the compounds 2, 3, 7, 11 to 13, 20, 23, 24, 30, 38, 39, 41 to 43, 46, 50, 64, 68, 80, 82, 88, 93, 94, 96, 104, 107, and 112 of the present invention at 0.1 ppm, the value of a relative leaf area was 5 or greater, compared to the area of green leaf of the control plot not treated with compound. Accordingly, it was confirmed that the treatment using the compound of the present invention improve a growth promotion effect. Relative leaf area=100*(a green area of a plot treated with the compound of the present invention minus(−) a green area of a plot not treated with the compound of the present invention)/(a green area of a control plot not treated with the compound of the present invention that had not yet been subjected to low-temperature stress treatment minus(−) green area of a control plot not treated with the compound of the present invention) Equation (1): […]
row,Compound,relative green leaf area at 0.1 ppm [%]
1,"O=C(O)c1cc2cc(-c3ccc(Cl)cc3)ccc2s1 [Present compound 39, 5-(4-chlorophenyl)benzo[b]thiophene-2-carboxylic acid]",≥ 5
2,"O=C(O)c1cc2cc(-c3ccncc3)ccc2s1 [Present compound 46, 5-(4-pyridyl)benzo[b]thiophene-2-carboxylic acid]",≥ 5
3,"O=C(O)c1cc2cc(-c3cccs3)ccc2s1 [Present compound 50, 5-(2-thienyl)benzo[b]thiophene-2-carboxylic acid]",≥ 5
4,"CN(C)c1cccc2sc(C(=O)O)cc12 [Present compound 64, 4-(dimethylamino)benzo[b]thiophene-2-carboxylic acid]",≥ 5
5,"O=C(O)c1sc2ccccc2c1O [Present compound 80, 3-hydroxybenzo[b]thiophene-2-carboxylic acid]",≥ 5
6,"COc1ccc2sc(C(=O)O)cc2c1 [Present compound 82, 5-methoxybenzo[b]thiophene-2-carboxylic acid]",≥ 5
7,"O=C(O)c1sc2ccccc2c1OCc1ccccc1 [Present compound 88, 3-benzyloxybenzo[b]thiophene-2-carboxylic acid]",≥ 5
8,"Cc1ccccc1Oc1cccc2cc(C(=O)O)sc12 [Present compound 94, 7-(2-methylphenoxy)benzo[b]thiophene-2-carboxylic acid]",≥ 5
9,O=C(O)c1cc2cccc(Oc3ccc(OC(F)(F)F)cc3)c2s1 [Present compound 96],≥ 5
10,"O=C(O)c1cc2cc(C(F)(F)F)cc(Cl)c2s1 [Present compound 104, 7-chloro-5-trifluoromethylbenzo[b]thiophene-2-carboxylic acid]",≥ 5
11,"O=C(O)c1sc2ccc(C(F)(F)F)cc2c1C(F)(F)F [Present compound 107, 3,5-bis(trifluoromethyl)benzo[b]thiophene-2-carboxylic acid]",≥ 5
12,"COc1c(C(=O)O)sc2ccc(C(F)(F)F)cc12 [Present compound 112, 3-methoxy-5-trifluoromethylbenzo[b]thiophene-2-carboxylic acid]",≥ 5

# Test system: Corn (Variety: Pioneer 31P41)
# Assay: Test Example 8: growth promotion under low-temperature stress by corn seed treatment
# Assay type: in vivo
# Details: corn seed treatment: compound 21 0.5 g, compound 55 0.5 g, 5 g or 50 g per 100 kg corn seeds; 4 days at 2.5±1° C., then 4 days at 27° C.
# Procedure: Test Example 8. Test for Evaluating Growth Promotion Under Low-Temperature Stress by Corn Seed Treatment
# Corn (Variety: Pioneer 31P41 (Manufactured by Pioneer Hi-Bred Japan)
# A blank slurry solution containing 10% (V/V) color coat red (Becker Underwood, Inc.), 10% (V/V) CF-Clear (Becker Underwood, Inc.), and 1.66% Maxim4FS (Syngenta) was prepared. The compound 21 of the present invention was dissolved in the blank slurry such that 0.5 g of the compound was used for treatment per 100 kg corn seeds, and the compound 55 of the present invention was dissolved in the blank slurry such that 0.5 g, 5 g or 50 g of the compound was used for treatment per 100 kg corn seeds respectively, thereby preparing a slurry solution.
# Zero point three five (0.35) ml of the slurry solution per 14.4 g of the seeds was put into a 50 ml centrifugal settling tube (manufactured by Becton, Dickinson and Company, Japan), and the slurry solution was stirred until it dries, thereby coating the seeds. Moreover, the seeds coated with the blank slurry were used as seeds for an untreated control plot. […]
# After low-temperature stress treatment was performed, the seeds were cultured for 4 days at 27° C., under the conditions of an illuminance of 5,000 lux, and a day length of 16 hours. Thereafter, a fresh weight of the aerial part in plant was measured, and an average weight of each individual was determined. […]
row,Compound,fresh weight of the aerial part compared with the untreated control plot
1,Cc1ccc2sc(C(=O)O)cc2c1 [Present compound 21],larger
2,"O=C(O)c1sc2ccccc2c1C(=O)O [Present compound 55, benzo[b]thiophene-2,3-dicarboxylic acid]",larger
